In this test the target is human RIP1 kinase domain (2-375) (Homo sapiens (Human), UniProt Q13546). The test can be described thus: RIP1 kinase inhibition biochemical assay (Transcreener ADP, fluorescence polarization). To be noted: apparent Ki (Kiapp, Morrison tight-binding fit); 50 nM enzyme, 50 uM ATP, 2 hours incubation. Here is the method: RIP1 Kinase Inhibition Assays (Biochemical Assay):
The compounds of the present invention were tested for their capacity to inhibit RIP IK activity as described below.
Enzyme assay: The ability of the receptor interacting protein kinase (RIPK1) to catalyze the hydrolysis of adenosine-5′-triphosphate (ATP) is monitored using the Transcreener ADP (adenosine-5′-diphosphate) assay (BellBrook Labs). Purified human RIP1 kinase domain (2-375) (50 nM) derived from a baculovirus-infected insect cell expression system is incubated with test compounds for 2 hours in 50 mM Hepes buffer (pH 7.5) containing 30 mM MgCl2, 1 mM dithiothreitol, 50 uM ATP, 0.002% Brij-35, and 0.5% dimethyl sulfoxide (DMSO). Reactions are quenched by the addition of IX Bell Brooks Stop buffer B (20 mM Hepes (ph7.5), 40 mM ethylenediaminetetraacetic acid and 0.02% Brij-35) containing an additional 12 mM EDTA and 55 ug/mL ADP2 antibody and 4 nM ADP-AlexaFluor® 633 tracer. The tracer bound to the antibody is displaced by the ADP generated during the RIP IK reaction, which causes a decrease in fluorescence polarization that is measured by laser excitation at 633 nm with a FP microplate reader M1000. Fractional activity was plotted against test article concentration. […]

Sequence of human RIP1 kinase domain (2-375) (Q13546 2-375): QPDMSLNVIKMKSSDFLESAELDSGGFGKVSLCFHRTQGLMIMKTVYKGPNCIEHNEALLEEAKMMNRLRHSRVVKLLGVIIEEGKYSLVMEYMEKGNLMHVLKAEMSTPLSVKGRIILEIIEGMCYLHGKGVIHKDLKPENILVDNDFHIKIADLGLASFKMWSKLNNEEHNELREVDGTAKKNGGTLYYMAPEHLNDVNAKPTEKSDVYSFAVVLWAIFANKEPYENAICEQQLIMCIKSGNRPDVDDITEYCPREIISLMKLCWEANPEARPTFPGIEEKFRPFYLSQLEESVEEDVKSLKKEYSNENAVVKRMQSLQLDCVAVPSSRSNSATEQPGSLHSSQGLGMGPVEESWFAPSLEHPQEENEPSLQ

Turning to `O=C(c1nc2n(n1)CCC2c1ccccc1F)N1CC(F)(F)C1` (racemic) [Example 14, (3,3-difluoroazetidin-1-yl)-[7-(2-fluorophenyl)-6,7-dihydro-5H-pyrrolo[1,2-b][1,2,4]triazol-2-yl]methanone], the Ki was determined as 233 nM.
Next, `O=C(c1nc2n(n1)[C@H](c1ccccc1)C[C@@H]2F)N1CC(F)(F)C1` (single isomer, unassigned) [Example 36]: 4 nM.

The values above are taken from patent publication US11607396B2, “Bicyclic amide compounds and methods of use thereof” (Genentech, Inc., priority 2016, dated 2023).
